Values after ≈ are worked out from the molar mass of the structure shown. Where a SMILES comes first, the peptide text is derived from it. Bridges are numbered along the chain shown (N, C = ends). [ ]: non-standard residue; d: D form. The star is where a group is joined. Decanoyl = CCCCCCCCCC(=O)*; Octanoyl = CCCCCCCC(=O)*; Dab = NCC[C@H](N)C(=O)O; Abu = CC[C@H](N)C(=O)O
Columns and labels:
E. coli IH3080 [1] = assay: Growth inhibition around wells on LB agar plates; type: cell-based, Escherichia coli
Procedure, shortened: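 Growth inhibition of encapsulated E. coli IH3080 (K1:O018) was assessed on LB agar plates. A suspension of about 10^8 cells/ml in 0.9% NaCl, made from an overnight LB agar culture, was spread across the plate surface and the excess removed. After drying, 2 mm wells were drilled, with 0.9% NaCl as control. Following 18 h at 37° C., inhibition zone diameters around wells were converted to areas in square mm.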

[2] = tested on: Acinetobacter baumannii ATCC 19606; assay: Growth inhibition around wells on LB agar plates; type: cell-based; settings: A. baumannii ATCC 19606
[3] = tested on: Pseudomonas aeruginosa ATCC 27853; assay: Growth inhibition around wells on LB agar plates; type: cell-based; settings: Ps. aeruginosa ATCC 27853
Procedure, shortened: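 Activity against Pseudomonas aeruginosa ATCC 27853 was assessed by agar well diffusion on LB plates. A suspension of about 10^8 cells/ml in 0.9% NaCl was spread over the agar and the excess removed. Once the surface had dried, 2 mm wells were drilled and filled with peptide dissolved in 0.9% NaCl. Plates were incubated 18 h at 37° C, and inhibition zone diameters were converted to areas in square mm.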

E. coli IH3080 [4] = assay: Sensitization to rifampin: growth inhibition around wells on LB plates containing rifampin; type: cell-based, Escherichia coli; settings: 4 μg of compound
[5] = tested on: Ps. aeruginosa ATCC 27853; assay: as above; type: cell-based, Pseudomonas aeruginosa; settings: 4 μg
[6] = molecular target: brush-border membrane (BBM) from the renal cortex; assay: Inhibition of binding of radiolabelled gentamycin to brush-border membrane vesicles; settings: rat renal cortex BBM vesicles; 20 μM [3H] gentamycin; 60 min at 4° C.
Text: The binding of the compounds according to this invention to isolated brush-border membrane (BBM) from the renal cortex can be measured indirectly by measuring their ability to inhibit the binding of radiolabelled gentamycin to BBM. Accordingly, the compounds according to this invention that have less affinity to BBM than for example polymyxin B inhibit the binding of radiolabelled gentamycin to a lesser degree than does polymyxin B.
BBM was isolated from the renal cortex of male albino rats by using the Mg^2+/EGTA precipitation technique as described by Nagai et al. (2006). The binding of gentamycin was measured, according to the method described by Nagai et al. (2006) by incubating BBM vesicles (20 μl) in 10 mM HEPES (pH 7.5) with 300 mM mannitol in the presence of 20 μM [^3H] gentamycin (American Radiolabeled Chemicals, Inc. (St. Louis, Mo., U.S.A.) with or without the compound to be tested or a positive control. After an incubation of 60 min at 4° C., 1 ml of ice-cold buffer described above was added, and the mixture was filtered through a Millipore filter (0.45 μm; HAWP). The filter was washed with the buffer and the radioactivity remaining in the filter was measured by using a liquid scintillation counter. The IC50 values were determined as in Nagai et al. (2006) using the Hill equation.

E. coli F18 = type: cell-based, Escherichia coli
Experimental: The MIC values of NAB 739, NAB 740, and NAB7061 were determined by using the agar dilution method according to the CLSI protocol M7-A7. Polymyxin B sulfate (Sigma-Aldrich, St. Louis, Mo., USA) was used as a control. […]; two-fold increments) of the test substances were used. The bacterial test strains originated from ATCC (10 strains), CCUG (11 strains), and NCTC (3 strains). Fourteen (14) strains (the F-strains) were purchased from Mobidiag Ltd., Helsinki, Finland. Besides bacteria, the MIC was also determined for the yeast Candida albicans (ATCC 28366 from ATCC).
The inocula were prepared by adjusting the bacterial suspensions to a density equivalent to OD546 nm˜0.3 (˜10^8 CFU/ml˜0.5 McFarland) the yeast suspension to a density equivalent to OD546 nm˜0.75 (˜2×10^7 CFU/ml)._The suspensions were diluted to 10^7 CFU/ml. The plates were inoculated by using a Denley Multipoint Inoculator, 1 μl per spot corresponding to approx. 10^4 CFU/spot. Plates were incubated for 16-20 hours at 35° C.

Compound | growth inhibition around a well (E. coli IH3080 [1]; 10 μg of compound per well) [square millimeters] | growth inhibition around a well ([2]; 4 μg) [square millimeters] | growth inhibition around a well ([2]; 10 μg) [square millimeters] | growth inhibition around a well ([3]; 4 μg) [square millimeters] | growth inhibition around a well ([3]; 10 μg) [square millimeters] | growth inhibition around a well in the presence of rifampin (E. coli IH3080 [4]; rifampin 0 μg/ml) [square millimeters] | growth inhibition around a well in the presence of rifampin (E. coli IH3080 [4]; rifampin 0.1 μg/ml) [square millimeters] | growth inhibition around a well in the presence of rifampin (E. coli IH3080 [4]; rifampin 1.0 μg/ml) [square millimeters] | growth inhibition around a well in the presence of rifampin ([5]; rifampin 0 μg/ml) [square millimeters] | growth inhibition around a well in the presence of rifampin ([5]; rifampin 0.1 μg/ml) [square millimeters] | growth inhibition around a well in the presence of rifampin ([5]; rifampin 0.3 μg/ml) [square millimeters] | IC50 [6] [µM] | MIC (E. coli F18) [µg/mL] | growth inhibition around a well (E. coli IH3080 [1]; 4 μg of compound per well, listed as Polymyxin B sulfate) [square millimeters] | growth inhibition around a well (E. coli IH3080 [1]; 4 μg of compound per well) [square millimeters]
CCCCCCCCCC(=O)N[C@H](C(=O)N[C@H](CO)C(=O)N[C@H]1CCNC(=O)[C@H]([C@@H](C)O)NC(=O)[C@H](CCN)NC(=O)[C@H](CCN)NC(=O)[C@H](CC(C)C)NC(=O)[C@@H](Cc2ccccc2)NC(=O)[C@H](CCN)NC1=O)[C@@H](C)O [NAB 740, DA-Thr-DSer-cy[Dab-Dab-DPhe-Leu-Dab-Dab-Thr-]] (Decanoyl-T[dS][Dab][Dab][dF]L[Dab][Dab]T; lactam 3-C) | 133 | 133 | 201 | 64 | 133 | 95 | 95 | 95 | 64 | 64 | 64 | 198 ± 49 | 2 (≈ 1.81 µM) |  | 
CCCCCCCC(=O)N[C@H](C(=O)N[C@H](CO)C(=O)N[C@H]1CCNC(=O)[C@H]([C@@H](C)O)NC(=O)[C@H](CCN)NC(=O)[C@H](CCN)NC(=O)[C@H](CC(C)C)NC(=O)[C@@H](Cc2ccccc2)NC(=O)[C@H](CCN)NC1=O)[C@@H](C)O [NAB 739, OA-Thr-DSer-cy[Dab-Dab-DPhe-Leu-Dab-Dab-Thr-]] (Octanoyl-T[dS][Dab][Dab][dF]L[Dab][Dab]T; lactam 3-C) |  | 113 | 177 | 38 | 79 | 133 | 177 | 201 | 38 |  | 64 | 264 ± 91 | 1 (≈ 0.929 µM) |  | 
Polymyxin B [reference compound] |  |  |  |  | 133 | 79 | 95 | 104 |  |  |  | 39.3 ± 5.5 | 0.5 | 95 | 
CCCCCCCC(=O)N[C@H](C(=O)N[C@@H](CC)C(=O)N[C@H]1CCNC(=O)[C@H]([C@@H](C)O)NC(=O)[C@H](CCN)NC(=O)[C@H](CCN)NC(=O)[C@H](CC(C)C)NC(=O)[C@@H](Cc2ccccc2)NC(=O)[C@H](CCN)NC1=O)[C@@H](C)O [NAB 7061, OA-Thr-Abu-cy[Dab-Dab-DPhe-Leu-Dab-Dab-Thr-]] (Octanoyl-T[Abu][Dab][Dab][dF]L[Dab][Dab]T; lactam 3-C) |  | 0 | 0 | 0 | 0 | 0 |  |  | 0 | 0 | 0 |  | >32 |  | 0

Reference: patent US8329645B2, “Polymyxin derivatives and uses thereof” (priority 2008, dated 2012)
